Measured values from patent US20050054587A1, “Novel therapeutic indication of azithromycin for treatment of non-infective inflamatory diseases” (priority 2001, published 2005).

Assays:
Assay type in all cases: in vivo, human
myeloperoxidase (MPO) [1] = test: Myeloperoxidase cytochemical score in blood smear neutrophils, healthy volunteer trial; conditions: healthy volunteers, azithromycin 3×500 mg, baseline 337 ± 29, score 0-400
Description: (§1) A trial on healthy volunteers was conducted and the influence of azithromycin given in a dosage of 3×500 mg on selected inflammation-relevant parameters was followed up.
(§2) Each subject received two standard 250 mg capsules of azithromycin (Sumamed®, PLIVA Zagreb) on three consecutive days. Immediately before the treatment and 2 h and 30 min, 24 h and 28 days after the third and last dose of azithromycin blood was collected from the cubital vein into EDTA-containing tubes. Aliquots were taken for cell counting, smear preparation, polymorphonuclear cell and serum isolation.
(§3) The activity of MPO was assessed from the intensity of staining of neutrophils in blood smears and in cell lysates by ELISA. After fixation in ethanol-formaldehyde, smears were incubated in a substrate solution containing hydrogen peroxide and benzidine (SIGMA). After incubation, smears were counterstained with Giemsa solution. MPO value positivity_of 100 granulocytes was evaluated and scored from 0 to 4+ on the basis of the intensity of the precipitated dye in cytoplasm. Therefore, the value of the score could be from 0 to 400. Normal values of score range (290-390) were taken from this study before azithromycin administration. MPO activity was also evaluated on the digital image of smear taken with a digital camera under the high magnification (×1000) of light microscope. MPO activities in blood smear neutrophils decreased from 2 h and 30 min to 24 h after the last azithromycin dose and returned to baseline after 28 days (Table 1). The change in neutrophil enzyme protein followed the same pattern as that in intracellular enzyme activity, decreasing from 2 h and 30 min to 24 h after the last dose of azithromycin and returning to baseline after 28 days. Both methodological approaches of MPO determination confirmed each other. Degranulation presented with lower MPO neutrophil density determined_with cytochemistry was associated with lower MPO ELISA concentrations in neutrophil lysates.

IL-8 = test: Serum IL-8 concentration, ELISA; conditions: healthy volunteers, azithromycin 3×500 mg, baseline 29.47 ± 15.44
Description: as §1, §2
Cytokine and chemokine concentrations were determined using ELISA kits. […] Rapid and pronounced decreases in the plasma concentrations of the neutrophil-stimulating chemokine, IL-8, and GR0-α were observed 2 h and 30 min and 24 h after the last dose of azithromycin (Table 1. The concentration of IL-8 returned essentially to baseline after 28 days, while that of GRO-[…] was decreased at this time.

granulocytes = test: Apoptotic cells by morphology of blood smears; conditions: healthy volunteers, azithromycin 3×500 mg, baseline 0.333 ± 0.655
Description: as §1, §2
Three-day administration of azithromycin exerted a delayed pro-apoptotic effect on granulocytes, as indicated by morphology of blood smears. The number of apoptotic cells counted increased continuously after the three day dosing with azithromycin, achieving statistical significance 28 days after the last dose.

[2] = system: N-acetyl-β-D-glucosaminidase (NAGA); test: NAGA activity in serum, fluorimetric; conditions: healthy volunteers; for NAGA (serum): azithromycin 3×500 mg, baseline 9.16 ± 1.6
Description: as §1, §2
(§4) Glycosidases are enzymes that catalyse hydrolysis of glycosidic bonds of oligosacharides and other glycosides. They are specific to the glycosidic part of substrate molecule. N-acetyl-β-D-glucosaminidase (NAGA) and β-glucuronidase are such enzymes. They are lysosomal enzymes, both located in azurophilic (primary; peroxidase-positive) granules of neutrophils. Since degranulation of neutrophils is present during inflammation, many authors choose these enzymes as markers of degranulation and for estimation of neutrophil reactivity. The catalytic concentration of both enzymes in serum and in neutrophil lysates was determined using the fluorimetric method described by O'Brien et al. (New Engl. J. Med. (1970) 283: 15-20) for NAGA and Glaser & Sly (J. Lab. Clin. Med. (1973) 82: 969) for β-glucuronidase.

[3] = system: azurophilic granules of neutrophils; test: Release of glycosidases from azurophilic granules (NAGA and β-glucuronidase); conditions: healthy volunteers, 3×500 mg; within 24 hours after the last dose
Description: as §1, §2
as §4, with “β-glucuronidase. […]” for “β-glucuronidase.”

myeloperoxidase (MPO) [4] = test: Myeloperoxidase density on digital image of blood smear, healthy volunteer trial; conditions: healthy volunteers, azithromycin 3×500 mg, baseline 105 ± 13
Description: as §1, §2, §3

β-glucuronidase = β-glucuronidase activity in neutrophil (PMN) lysates, fluorimetric; conditions: healthy volunteers; for β-glucuronidase (PMN): azithromycin 3×500 mg, baseline 4.12 ± 2.7
Description: as §1, §2, §4

[5] = system: N-acetyl-β-D-glucosaminidase (NAGA); test: NAGA activity in neutrophil (PMN) lysates, fluorimetric; conditions: healthy volunteers; for NAGA (PMN): azithromycin 3×500 mg, baseline 4.15 ± 01.6
Description: as §1, §2, §4

sVCAM = test: Serum sVCAM concentration, ELISA; conditions: healthy volunteers, azithromycin 3×500 mg, baseline 13.59 ± 2.90
Description: as §1, §2
For quantitative determination of serum concentration of human sVCAM, an ELISA kit was used (R&D systems, UK)

glutathione reductase = test: Glutathione reductase activity in PMN lysates (BIOXYTECH GR-340); conditions: healthy volunteers, azithromycin 3×500 mg, baseline 9.63 ± 1.16
Description: as §1, §2
Glutathione reductase is an ubiquitous enzyme that catalyses the reduction of oxidised glutathione (GSSG) to glutathione (GSH). Glutathione reductase is essential for the glutathione redox cycle that maintains adequate levels of reduced cellular GSH. GSH serves as an antioxidant, reacting with free radicals and organic peroxides, in amino acid transport, and as a substrate for the GSHPx and glutathione S-transferases in the detoxification of organic peroxides and metabolism of xenobiotics. Glutathione reductase was determined using the BIOXYTECH® GR-340™ colorimetric assay for glutathione reductase (OXIS International, Inc.). Briefly, oxidation of NADPH to NADP^+ is catalysed by a limiting concentration of glutathione reductase.

[6] = 3×500 mg, 24 hours after the last dose

## CC[C@H]1OC(=O)[C@H](C)[C@@H](O[C@H]2C[C@@](C)(OC)[C@@H](O)[C@H](C)O2)[C@H](C)[C@@H](O[C@@H]2O[C@H](C)C[C@H](N(C)C)[C@H]2O)[C@](C)(O)C[C@@H](C)CN(C)[C@H](C)[C@@H](O)[C@]1(C)O [azithromycin, 9-deoxo-9-dihydro-9a-methyl-9a-aza-9a-homoerythromycin A]
Myeloperoxidase (MPO) [1]; 2 h and 30 min after last dose
  myeloperoxidase (score): 326 ± 26
Myeloperoxidase (MPO) [1]; 24 hours after last dose
  myeloperoxidase (score): 315 ± 22
Myeloperoxidase (MPO) [1]; 28 days after last dose
  myeloperoxidase (score): 347 ± 18
IL-8; 2 h and 30 min after last dose
  IL-8 (serum): 10.61 ± 3.81 pg/mL
IL-8; 24 hours after last dose
  IL-8 (serum): 14.60 ± 10.75 pg/mL
IL-8; 28 days after last dose
  IL-8 (serum): 23.03 ± 19.72 pg/mL
granulocytes; 2 h and 30 min after last dose
  APOPTOSIS (WBC): 0.833 ± 1.029 apoptopic cells/1000 WBC
granulocytes; 24 hours after last dose
  APOPTOSIS (WBC): 1.417 ± 1.240 apoptopic cells/1000 WBC
granulocytes; 28 days after last dose
  APOPTOSIS (WBC): 2.583 ± 2.02 apoptopic cells/1000 WBC
[2]; 3×500 mg, 2 h and 30 min after the last dose
  increase of activity of NAGA in serum vs initial values: about 30%
[2]; [6]
  activity of NAGA in serum higher than the initial values: approximately 50%
[2]; 3×500 mg, 28 days after the last dose
  serum NAGA values higher than initial values: 70%
[2]; 2 h and 30 min after last dose
  NAGA (serum): 11.52 ± 2.2 µmol/L/min
[2]; 24 hours after last dose
  NAGA (serum): 13.7 ± 1.5 µmol/L/min
[2]; 28 days after last dose
  NAGA (serum): 14.87 ± 1.9 µmol/L/min
[3]
  release of enzymes from azurophilic granules: 40-50%
Myeloperoxidase (MPO) [4]; 2 h and 30 min after last dose
  myeloperoxidase (density): 130 ± 16
Myeloperoxidase (MPO) [4]; 24 hours after last dose
  myeloperoxidase (density): 131 ± 17
Myeloperoxidase (MPO) [4]; 28 days after last dose
  myeloperoxidase (density): 115 ± 19
β-glucuronidase; 3×500 mg, 24 hours
  decrease of activities of β-glucuronidase in PMN compared to initial values: about 50%
β-glucuronidase; 3×500 mg, 28 days later
  β-glucuronidase activity in PMN higher compared to the initial values: about 300%
β-glucuronidase; 3×500 mg, after 2 h and 30 min
  decrease of activities of β-glucuronidase in PMN compared to initial values: about 20%
β-glucuronidase; 2 h and 30 min after last dose
  β-glucuronidase (PMN): 3.21 ± 2.3 nmol × 10^−6 cells × min^−1
β-glucuronidase; 24 hours after last dose
  β-glucuronidase (PMN): 1.58 ± 0.4 nmol × 10^−6 cells × min^−1
β-glucuronidase; 28 days after last dose
  β-glucuronidase (PMN): 15.37 ± 11.4 nmol × 10^−6 cells × min^−1
[5]; 3×500 mg, 2 h and 30 min after the last dose, vs initial values
  decrease in NAGA in granulocytes: about 70%
[5]; [6]
  NAGA activity in PMN lower compared to initial values: about 40%
[5]; 3×500 mg, 24 hours later
  NAGA activity in PMN increase from the 2 h and 30 min value: about 30%
[5]; 3×500 mg, after 28 days
  activity of NAGA (PMN) increased over the initial values: 40%
[5]; 2 h and 30 min after last dose
  NAGA (PMN): 1.13 ± 0.72 nmol × 10^−6 cells × min^−1
[5]; 24 hours after last dose
  NAGA (PMN): 2.62 ± 1.6 nmol × 10^−6 cells × min^−1
[5]; 28 days after last dose
  NAGA (PMN): 5.95 ± 3.7 nmol × 10^−6 cells × min^−1
sVCAM; 2 h and 30 min after last dose
  sV-CAM (serum): 12.21 ± 4.12 ng/mL
sVCAM; 24 hours after last dose
  sV-CAM (serum): 10.29 ± 2.12 ng/mL
sVCAM; 28 days after last dose
  sV-CAM (serum): 10.74 ± 2.05 ng/mL
Glutathione reductase; 2 h and 30 min after last dose
  GLUTATHION REDUCTASE (PMN): 7.39 ± 1.23 mU/10^6PMN
Glutathione reductase; 24 hours after last dose
  GLUTATHION REDUCTASE (PMN): 7.91 ± 0.87 mU/10^6PMN
Glutathione reductase; 28 days after last dose
  GLUTATHION REDUCTASE (PMN): 11.27 ± 2.24 mU/10^6PMN
